IC50 data for 28 molecules are collected here from the supplement of paper PMC7695840.

Structures can show the parent of a compound that is named as a salt.

Experiment [1] relates to Staphylococcus aureus MW2 delta-mecA (mecA-). Description: IC50 (growth, competition assay). The settings on record: cefoxitin: subinhibitory. The procedure, abridged:
(§1)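 Two fluorescent S. aureus MW2 strains, one carrying and one lacking the resistance gene, were pre-induced, mixed 1:1 and grown unshaken in LB in 1536-well plates for 20 h at 37 °C and 90% humidity with a subinhibitory drug dose set each day. Compounds were tested on five- or nine-point 2-fold gradients in two dye-swapped replicates. DsRed (540/590) and GFP (485/520) signals were scaled per plate between the medians of single-strain controls, and No Treatment was then set to 0.5. For each strain, IC50 was taken as the dose that halved the No Treatment signal, or else the maximal signal.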

Experiment [2] deals with Staphylococcus aureus MW2 (mecA+). In words: IC50 (growth, competition assay). The settings on record: cefoxitin: subinhibitory. The procedure, abridged:
as §1

As usually defined, the IC50 is the midpoint of a concentration-inhibition curve. The low end stands for higher potency, the high end for lower potency. As to `COc1cc([C@@H]2c3cc4c(cc3[C@@H](O[C@@H]3O[C@@H]5CO[C@@H](c6cccs6)O[C@H]5[C@H](O)[C@H]3O)[C@H]3COC(=O)[C@H]23)OCO4)cc(OC)c1O` [VUMON], the IC50 in experiment [1] (fluorescent label: DsRed), in experiment [1] (fluorescent label: GFP), in experiment [2] (fluorescent label: DsRed) and in experiment [2] (fluorescent label: GFP) was < 9.85 µM throughout.

With `CO[C@H]1/C=C/O[C@@]2(C)Oc3c(C)c(O)c4c(O)c(c5c(nc6cc(C)ccn65)c4c3C2=O)NC(=O)/C(C)=C\C=C\[C@H](C)[C@H](O)[C@@H](C)[C@@H](O)[C@@H](C)[C@H](OC(C)=O)[C@@H]1C` [XIFAXAN], the IC50 in experiment [1] (fluorescent label: DsRed), in experiment [1] (fluorescent label: GFP), in experiment [2] (fluorescent label: DsRed) and in experiment [2] (fluorescent label: GFP) was < 9.85 µM each time.

For `COc1cc(NS(C)(=O)=O)ccc1Nc1c2ccccc2nc2ccccc12` [AMSIDYL], the IC50 was < 9.85 µM in experiment [1] (fluorescent label: DsRed), < 9.85 µM in experiment [1] (fluorescent label: GFP), 74.3 µM in experiment [2] (fluorescent label: DsRed) and 76.1 µM in experiment [2] (fluorescent label: GFP).

Take `C[CH2][Hg][S]c1ccccc1C(=O)[O-].[Na+]` [MERTHIOLATE]: the IC50 in experiment [1] (fluorescent label: DsRed), in experiment [1] (fluorescent label: GFP), in experiment [2] (fluorescent label: DsRed) and in experiment [2] (fluorescent label: GFP) was < 9.85 µM each time.

Turning to `C[C@H]1c2cccc(O)c2C(=O)C2=C(O)[C@]3(O)C(=O)C(C(N)=O)=C(O)[C@@H](N(C)C)[C@@H]3[C@@H](O)[C@@H]21` [Doxycycline hydrochloride], the IC50 in experiment [1] (fluorescent label: DsRed), in experiment [1] (fluorescent label: GFP), in experiment [2] (fluorescent label: DsRed) and in experiment [2] (fluorescent label: GFP) was < 9.85 µM each time.

In the case of `O=C(N/N=C/c1ccc([N+](=O)[O-])o1)c1ccc(O)cc1` [NIFUROXAZIDE], the IC50 in experiment [1] (fluorescent label: DsRed) was 46.2 µM; in experiment [1] (fluorescent label: GFP) it was < 9.85 µM; in experiment [2] (fluorescent label: DsRed), < 9.85 µM; in experiment [2] (fluorescent label: GFP) it was 54.6 µM.

Turning to `Cc1cc2nc3c(=O)[nH]c(=O)nc-3n(C[C@H](O)[C@H](O)[C@H](O)CO)c2cc1C` [Riboflavin (Vitamin B2)], the IC50 in experiment [1] (fluorescent label: DsRed), in experiment [1] (fluorescent label: GFP), in experiment [2] (fluorescent label: DsRed) and in experiment [2] (fluorescent label: GFP) was > 150 µM in each case.

Regarding `COc1ccc(CCN(C)CCCOc2ccc(S(=O)(=O)c3c(C(C)C)n(C)c4ccccc34)cc2)cc1OC`, the IC50 in experiment [1] (fluorescent label: DsRed) was < 9.85 µM; in experiment [1] (fluorescent label: GFP) it was < 9.85 µM; in experiment [2] (fluorescent label: DsRed), 14.8 µM; in experiment [2] (fluorescent label: GFP), 14.9 µM.

Consider `O[C@@H](COc1cccc2ncccc12)CN1CCN([C@@H]2c3ccccc3[C@@H]3[C@H](c4ccccc42)C3(F)F)CC1`, for which the IC50 in experiment [1] (fluorescent label: DsRed) was 14.3 µM; in experiment [1] (fluorescent label: GFP), < 9.85 µM; in experiment [2] (fluorescent label: DsRed), 52.2 µM; in experiment [2] (fluorescent label: GFP) it was 42.5 µM.

Consider `CN1C[C@@H]2C[C@H]1CN2c1cc2c(cc1F)c(=O)c(C(=O)O)cn2C1CC1` [Danofloxacin Mesylate], for which the IC50 in experiment [1] (fluorescent label: DsRed), in experiment [1] (fluorescent label: GFP), in experiment [2] (fluorescent label: DsRed) and in experiment [2] (fluorescent label: GFP) was < 9.85 µM in each case.

As to `CCN(CC)CCOc1ccc(Nc2ncc3cc(-c4c(Cl)cccc4Cl)c(=O)n(C)c3n2)cc1`, the IC50 in experiment [1] (fluorescent label: DsRed) turned out to be 30.6 µM; in experiment [1] (fluorescent label: GFP), 36.5 µM; in experiment [2] (fluorescent label: DsRed), 85.1 µM; in experiment [2] (fluorescent label: GFP), 106 µM.

Turning to `C[C@H]1c2cccc(O)c2C(=O)C2=C(O)[C@]3(O)C(=O)C(C(N)=O)=C(O)[C@@H](N(C)C)[C@@H]3[C@@H](O)[C@@H]21` [PERIOSTAT], the IC50 in experiment [1] (fluorescent label: DsRed), in experiment [1] (fluorescent label: GFP), in experiment [2] (fluorescent label: DsRed) and in experiment [2] (fluorescent label: GFP) was < 9.85 µM throughout.

Regarding `CN[C@@H]1[C@@H](O)[C@@H](O[C@@H]2[C@@H](O)[C@H](O[C@H]3O[C@H]([C@@H](C)O)[C@@H](O)[C@H](O)[C@H]3N)[C@@H](N)C[C@H]2N)OC[C@]1(C)O` [GENETICIN], the IC50 in experiment [1] (fluorescent label: DsRed) was < 9.85 µM; in experiment [1] (fluorescent label: GFP) it was 12.4 µM; in experiment [2] (fluorescent label: DsRed), < 9.85 µM; in experiment [2] (fluorescent label: GFP) it was 12.5 µM.

As to `COc1cccc(OC)c1C(=O)N[C@@H]1C(=O)N2[C@@H]1SC(C)(C)[C@@H]2C(=O)O` [STAPHCILLIN], the IC50 in experiment [1] (fluorescent label: DsRed), in experiment [1] (fluorescent label: GFP), in experiment [2] (fluorescent label: DsRed) and in experiment [2] (fluorescent label: GFP) was < 9.85 µM each time.

As to `O=C(/C=C/c1ccccc1)c1ccc(O)cc1` [4'-HYDROXYCHALCONE], the IC50 in experiment [1] (fluorescent label: DsRed) amounted to 19.7 µM; in experiment [1] (fluorescent label: GFP), 19.6 µM; in experiment [2] (fluorescent label: DsRed) it was 77.3 µM; in experiment [2] (fluorescent label: GFP), 101 µM.

For the molecule `N[C@@H](C(=O)N[C@@H]1C(=O)N2C(C(=O)O)=C(Cl)CS[C@H]12)c1ccccc1` [Cefaclor], the IC50 in experiment [1] (fluorescent label: DsRed), in experiment [1] (fluorescent label: GFP), in experiment [2] (fluorescent label: DsRed) and in experiment [2] (fluorescent label: GFP) was < 9.85 µM in each case.

In the case of `C[C@@H](O)[C@H]1C(=O)N2C(C(=O)OCOC(=O)C(C)(C)C)=C(SC3CN(C4=NCCS4)C3)[C@H](C)[C@H]12` [Tebipenem pivoxil (L-084)], the IC50 in experiment [1] (fluorescent label: DsRed) was < 0.498 µM; in experiment [1] (fluorescent label: GFP), < 0.498 µM; in experiment [2] (fluorescent label: DsRed), 1.76 µM; in experiment [2] (fluorescent label: GFP), 1.77 µM.

Regarding `COC(=O)Nc1nc2cc(C(=O)c3cccs3)ccc2[nH]1` [Nocodazole], the IC50 was < 9.85 µM in experiment [1] (fluorescent label: DsRed), < 9.85 µM in experiment [1] (fluorescent label: GFP), 24.4 µM in experiment [2] (fluorescent label: DsRed) and 29 µM in experiment [2] (fluorescent label: GFP).

In the case of `COc1cc(Nc2ncc3c(n2)-c2ccc(Cl)cc2C(c2c(F)cccc2OC)=NC3)ccc1C(=O)O` [MLN8237 (Alisertib)], the IC50 in experiment [1] (fluorescent label: DsRed) was < 9.85 µM; in experiment [1] (fluorescent label: GFP) it was < 9.85 µM; in experiment [2] (fluorescent label: DsRed), 12.4 µM; in experiment [2] (fluorescent label: GFP), 27.5 µM.

In the case of `CCCCCCCCCCCCCCCC(=O)OC[C@H](O)[C@H]1OC(=O)C(O)=C1O` [EMPROVE], the IC50 in experiment [1] (fluorescent label: DsRed) is < 9.85 µM; in experiment [1] (fluorescent label: GFP) it was < 9.85 µM; in experiment [2] (fluorescent label: DsRed), 52.5 µM; in experiment [2] (fluorescent label: GFP), 87.6 µM.

Take `CCN1CCN(c2cc3c(cc2F)c(=O)c(C(=O)O)cn3C2CC2)CC1` [Enrofloxacin]: the IC50 in experiment [1] (fluorescent label: DsRed), in experiment [1] (fluorescent label: GFP), in experiment [2] (fluorescent label: DsRed) and in experiment [2] (fluorescent label: GFP) was < 9.85 µM in each case.

For `C=CCc1ccc(O)c(-c2cc(CC=C)ccc2O)c1` [Magnolol], the IC50 in experiment [1] (fluorescent label: DsRed) was 12 µM; in experiment [1] (fluorescent label: GFP), 8.24 µM; in experiment [2] (fluorescent label: DsRed), 40.1 µM; in experiment [2] (fluorescent label: GFP) it was 49.9 µM.

`O=S1(=O)N(CCN2CC=C(c3c[nH]c4cc(F)ccc34)CC2)c2cccc3c2N1CCC3` [LY-367,265]: the IC50 in experiment [1] (fluorescent label: DsRed) was < 9.85 µM; in experiment [1] (fluorescent label: GFP) it was 13.1 µM; in experiment [2] (fluorescent label: DsRed) it was 39 µM; in experiment [2] (fluorescent label: GFP) it was 45 µM.

As for `C=C1c2cccc(O)c2C(=O)C2=C(O)[C@]3(O)C(=O)C(C(N)=O)=C(O)[C@@H](N(C)C)[C@@H]3[C@@H](O)[C@H]12` [RONDOMYCIN], the IC50 in experiment [1] (fluorescent label: DsRed), in experiment [1] (fluorescent label: GFP), in experiment [2] (fluorescent label: DsRed) and in experiment [2] (fluorescent label: GFP) was < 9.85 µM in each case.

Turning to `CC(C)c1c(O)ccc2c1CC[C@H]1[C@@](C)(CO)CCC[C@]21C` [19-HYDROXYTOTAROL], the IC50 worked out at 107 µM in experiment [1] (fluorescent label: DsRed), 65.8 µM in experiment [1] (fluorescent label: GFP), 77.4 µM in experiment [2] (fluorescent label: DsRed) and 111 µM in experiment [2] (fluorescent label: GFP).

Turning to `O=S(=O)(O)c1cc(I)c(O)c2ncccc12` [YATREN], the IC50 turned out to be 49.8 µM in experiment [1] (fluorescent label: DsRed), 59.8 µM in experiment [1] (fluorescent label: GFP), 84.9 µM in experiment [2] (fluorescent label: DsRed) and 102 µM in experiment [2] (fluorescent label: GFP).

In the case of `O=C(Nc1ccc(C(=O)O)c(O)c1)c1ccccc1` [THERAPAS], the IC50 in experiment [1] (fluorescent label: DsRed) amounted to 17.6 µM; in experiment [1] (fluorescent label: GFP) it was 11.8 µM; in experiment [2] (fluorescent label: DsRed) it was 29.8 µM; in experiment [2] (fluorescent label: GFP) it was 29.3 µM.

With `O=C(O)C1=C(CSc2nnnn2CS(=O)(=O)O)CS[C@@H]2[C@H](NC(=O)[C@H](O)c3ccccc3)C(=O)N12` [MONOCID], the IC50 in experiment [1] (fluorescent label: DsRed) is < 9.85 µM; in experiment [1] (fluorescent label: GFP) it was < 9.85 µM; in experiment [2] (fluorescent label: DsRed), 98.3 µM; in experiment [2] (fluorescent label: GFP) it was 109 µM.
